{
  "source": "patent US8133904B2",
  "about": "“Cannabinoid receptor antagonists/inverse agonists useful for treating obesity” (Jenrin Discovery, Inc., priority 2007, dated 2012)",
  "origin": "cited, not measured here",
  "details": "patients with type 2 diabetes not treated with other anti-diabetic medications; after six months of treatment; baseline value 7.9",
  "data": [
    {"smiles": "Cc1c(C(=O)NN2CCCCC2)nn(-c2ccc(Cl)cc2Cl)c1-c1ccc(Cl)cc1", "note": "[rimonabant]", "values": [
      {"measurement": "HbA1c levels lowered", "value": 0.8, "unit": "%"}
    ]}
  ]
}
